pEC50, pKi: −log10 of the molar value. The source made the active and inactive calls. The calls are words filed in the database; no cut-off is given here.

The source of these data is ChEMBL document CHEMBL3627610 (Eur J Med Chem, 2015).

Assay [1] is filed under the species Xenopus laevis. As to the kind of experiment: Agonist activity at melatonin receptor in Xenopus laevis melanophores assessed as effect on pigment aggregation at 10^-5 M after 60 mins by microtiter plate reader assay.
Assay [2] is filed under the species Xenopus laevis. As to the kind of experiment: Antagonist activity at melatonin receptor in Xenopus laevis melanophores assessed as effect on pigment aggregation at 10^-4 M after 60 mins by microtiter plate reader assay.
Assay [3] can be described thus: Agonist activity at melatonin receptor in Xenopus laevis melanophores assessed as effect on pigment aggregation after 60 mins by microtiter plate reader assay.
Assay [4] addresses Melatonin receptor type 1A (Homo sapiens, UniProt P48039). The experiment in a line: Displacement of 2-[125I]iodomelatonin from human recombinant MT1 expressed in CHO cell membranes incubated for 60 mins by liquid scintillation spectrometry.
The target in assay [5] is T1, Melatonin receptor type 1B (Homo sapiens, UniProt P49286).
T1 sequence (P49286 whole entry): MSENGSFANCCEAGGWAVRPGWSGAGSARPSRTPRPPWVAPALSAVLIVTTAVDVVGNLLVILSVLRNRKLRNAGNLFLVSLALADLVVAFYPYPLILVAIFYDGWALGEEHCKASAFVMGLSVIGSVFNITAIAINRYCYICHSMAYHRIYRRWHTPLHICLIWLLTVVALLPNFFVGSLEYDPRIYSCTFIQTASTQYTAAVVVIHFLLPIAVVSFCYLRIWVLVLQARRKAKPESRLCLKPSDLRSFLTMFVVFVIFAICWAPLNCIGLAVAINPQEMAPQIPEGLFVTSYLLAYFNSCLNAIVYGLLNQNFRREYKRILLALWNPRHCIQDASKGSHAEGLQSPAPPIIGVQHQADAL
The experiment in a line: Displacement of 2-[125I]iodomelatonin from human recombinant MT2 expressed in CHO cell membranes incubated for 120 mins by liquid scintillation spectrometry.

For assay [6], the species on record is Xenopus laevis. The experiment in a line: Agonist activity at melatonin receptor in Xenopus laevis melanophores assessed as effect on pigment aggregation at 10^-12 to 10^-5 M after 60 mins by microtiter plate reader assay.

Melatonin receptor type 1A, sequence (P48039 whole entry): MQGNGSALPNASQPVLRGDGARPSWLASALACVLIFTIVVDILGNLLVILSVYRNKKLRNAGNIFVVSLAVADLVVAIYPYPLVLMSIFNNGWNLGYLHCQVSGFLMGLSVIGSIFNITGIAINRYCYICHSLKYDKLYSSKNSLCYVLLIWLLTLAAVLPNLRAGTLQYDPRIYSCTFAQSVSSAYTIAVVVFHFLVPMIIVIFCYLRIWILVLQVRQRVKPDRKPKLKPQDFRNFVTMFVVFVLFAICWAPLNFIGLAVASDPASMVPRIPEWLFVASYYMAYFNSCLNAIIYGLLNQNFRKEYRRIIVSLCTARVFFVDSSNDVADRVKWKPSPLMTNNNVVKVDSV

As for `COc1ccc2c(CCCNC(C)=O)cc(=O)oc2c1`, the outcome in the assay filed under Xenopus laevis [1] was inactive. For the same molecule, in the assay filed under Xenopus laevis [2], the inhibition entry is “Active”.

A word on the pEC50: it is the EC50 on a negative log10 scale, so that one unit is a factor of ten. Usually pKi stands for the Ki on a negative log10 scale, so that one unit is a factor of ten. In general, Emax refers to the size of the effect at its maximum, as opposed to the concentration needed. As to `COc1ccc2oc(=O)cc(CCNC(C)=O)c2c1`, in assay [3], the pEC50 was 6.93. In addition, the negative-log Ki (pKi) in assay [4] was 7.89; in assay [5], 8.47. Also, in the assay filed under Xenopus laevis [2], the inhibition entry is “Active”. Further, the Emax in the assay listed under Xenopus laevis [6] turned out to be 89%.

Turning to `COc1ccc2[nH]cc(CCNC(C)=O)c2c1` [MELATONIN], the negative logarithm of the EC50 (pEC50) in assay [3] was 10.13. The maximal response (Emax) in the assay filed under Xenopus laevis [6] worked out at 100%.
